Experimental findings from patent US8962596B2 (Array BioPharma Inc., priority 2010, dated 2015) are described below.

Common to all, as to assay type: biochemical
One experiment concerns the target T1, Human Tyk2 kinase domain (Homo sapiens, UniProt P29597).
T1 construct: comprising amino acids 886 to 1187 with 10 additional histidine residues; 10xHis (histidine tag) (C, cleaved yes); made in house
T1 sequence (P29597 886-1187): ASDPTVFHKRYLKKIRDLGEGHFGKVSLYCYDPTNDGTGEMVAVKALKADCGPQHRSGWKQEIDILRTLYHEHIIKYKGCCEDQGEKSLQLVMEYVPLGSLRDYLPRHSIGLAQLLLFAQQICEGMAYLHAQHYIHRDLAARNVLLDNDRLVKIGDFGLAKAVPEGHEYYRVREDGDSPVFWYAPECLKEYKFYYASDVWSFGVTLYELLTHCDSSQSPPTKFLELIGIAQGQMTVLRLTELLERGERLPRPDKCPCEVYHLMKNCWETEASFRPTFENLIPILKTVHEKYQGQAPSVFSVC
Kind of experiment: Tyk2 Inhibition Assay (Omnia kinase fluorescence peptide substrate assay). The conditions noted are these: averaged IC50 ranges; assay of Example A; 10 μM (Km app) or 1 mM ATP, 2 nM Tyk2. The method in brief:
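2 nM His-tag-cleaved kinase domain (aa 886–1187) with 8 μM Omnia Y12 peptide, 10 μM (Km app) or 1 mM ATP, pH 7.4 HEPES/10 mM MgCl2, 2% DMSO. Fluorescence (ex 360/em 485 nm) every 50 s for 45 min; IC50 from 4-parameter fit of POC, top dose 10 μM.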

The next experiment has as its target T2, JAK3 (Homo sapiens, UniProt P52333).
T2 construct: purchased Invitrogen Corporation, Carlsbad, Calif; PV4080
T2 sequence (P52333 1-1124): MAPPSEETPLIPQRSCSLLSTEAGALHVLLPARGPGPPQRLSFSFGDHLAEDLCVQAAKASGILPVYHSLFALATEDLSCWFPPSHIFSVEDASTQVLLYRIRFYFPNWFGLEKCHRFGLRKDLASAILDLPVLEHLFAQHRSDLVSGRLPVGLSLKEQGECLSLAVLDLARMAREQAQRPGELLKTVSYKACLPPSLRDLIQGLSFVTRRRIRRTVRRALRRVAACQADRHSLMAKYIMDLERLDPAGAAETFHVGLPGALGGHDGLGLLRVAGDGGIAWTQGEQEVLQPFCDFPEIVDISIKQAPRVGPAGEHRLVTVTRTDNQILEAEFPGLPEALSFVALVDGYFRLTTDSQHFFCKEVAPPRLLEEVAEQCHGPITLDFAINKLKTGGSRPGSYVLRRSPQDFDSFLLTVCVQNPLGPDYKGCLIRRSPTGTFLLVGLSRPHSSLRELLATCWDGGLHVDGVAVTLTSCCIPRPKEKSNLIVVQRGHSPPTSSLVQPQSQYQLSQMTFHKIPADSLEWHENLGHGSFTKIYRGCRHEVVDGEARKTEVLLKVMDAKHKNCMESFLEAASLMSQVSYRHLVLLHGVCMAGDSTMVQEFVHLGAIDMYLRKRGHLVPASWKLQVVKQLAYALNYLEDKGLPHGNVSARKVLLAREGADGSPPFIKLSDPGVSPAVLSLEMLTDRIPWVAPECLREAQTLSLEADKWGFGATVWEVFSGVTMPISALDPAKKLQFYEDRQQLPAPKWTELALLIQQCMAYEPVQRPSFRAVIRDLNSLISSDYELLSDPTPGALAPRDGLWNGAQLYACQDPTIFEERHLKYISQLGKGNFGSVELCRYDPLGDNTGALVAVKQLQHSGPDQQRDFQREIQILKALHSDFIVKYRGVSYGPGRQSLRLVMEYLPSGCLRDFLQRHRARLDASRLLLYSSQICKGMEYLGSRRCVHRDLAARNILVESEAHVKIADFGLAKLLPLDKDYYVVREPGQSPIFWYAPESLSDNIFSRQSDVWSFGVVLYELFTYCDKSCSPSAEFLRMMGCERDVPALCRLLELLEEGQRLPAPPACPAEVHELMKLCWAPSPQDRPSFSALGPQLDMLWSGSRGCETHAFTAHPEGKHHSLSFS
The experiment is described as follows: JAK3 Inhibition Assay (Omnia kinase fluorescence peptide substrate assay). The conditions noted are these: averaged IC50 ranges; assay of Example D; 10 μM (Km app) or 1 mM ATP, 2.5 nM JAK3. The method in brief:
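Kinase at 2.5 nM with 10 µM Omnia Y7 peptide and 10 µM (Km app) or 1 mM ATP in 25 mM HEPES pH 7.4, 10 mM MgCl2, 1 mM DTT, 0.01% Triton X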

Another experiment addresses T3, JAK1 (Homo sapiens, UniProt P23458).
T3 construct: purchased Invitrogen Corporation, Carlsbad, Calif; PV4775
The experiment is described as follows: JAK1 Inhibition Assay (Omnia kinase fluorescence peptide substrate assay). As to conditions: averaged IC50 ranges; assay of Example B; 40 μM (Km app) or 1 mM ATP, 15 nM JAK1.

For a further experiment, the target named is T4, JAK2 (Homo sapiens, UniProt O60674).
T4 construct: purchased Invitrogen Corporation, Carlsbad, Calif; PV4288
T4 sequence (O60674 whole entry): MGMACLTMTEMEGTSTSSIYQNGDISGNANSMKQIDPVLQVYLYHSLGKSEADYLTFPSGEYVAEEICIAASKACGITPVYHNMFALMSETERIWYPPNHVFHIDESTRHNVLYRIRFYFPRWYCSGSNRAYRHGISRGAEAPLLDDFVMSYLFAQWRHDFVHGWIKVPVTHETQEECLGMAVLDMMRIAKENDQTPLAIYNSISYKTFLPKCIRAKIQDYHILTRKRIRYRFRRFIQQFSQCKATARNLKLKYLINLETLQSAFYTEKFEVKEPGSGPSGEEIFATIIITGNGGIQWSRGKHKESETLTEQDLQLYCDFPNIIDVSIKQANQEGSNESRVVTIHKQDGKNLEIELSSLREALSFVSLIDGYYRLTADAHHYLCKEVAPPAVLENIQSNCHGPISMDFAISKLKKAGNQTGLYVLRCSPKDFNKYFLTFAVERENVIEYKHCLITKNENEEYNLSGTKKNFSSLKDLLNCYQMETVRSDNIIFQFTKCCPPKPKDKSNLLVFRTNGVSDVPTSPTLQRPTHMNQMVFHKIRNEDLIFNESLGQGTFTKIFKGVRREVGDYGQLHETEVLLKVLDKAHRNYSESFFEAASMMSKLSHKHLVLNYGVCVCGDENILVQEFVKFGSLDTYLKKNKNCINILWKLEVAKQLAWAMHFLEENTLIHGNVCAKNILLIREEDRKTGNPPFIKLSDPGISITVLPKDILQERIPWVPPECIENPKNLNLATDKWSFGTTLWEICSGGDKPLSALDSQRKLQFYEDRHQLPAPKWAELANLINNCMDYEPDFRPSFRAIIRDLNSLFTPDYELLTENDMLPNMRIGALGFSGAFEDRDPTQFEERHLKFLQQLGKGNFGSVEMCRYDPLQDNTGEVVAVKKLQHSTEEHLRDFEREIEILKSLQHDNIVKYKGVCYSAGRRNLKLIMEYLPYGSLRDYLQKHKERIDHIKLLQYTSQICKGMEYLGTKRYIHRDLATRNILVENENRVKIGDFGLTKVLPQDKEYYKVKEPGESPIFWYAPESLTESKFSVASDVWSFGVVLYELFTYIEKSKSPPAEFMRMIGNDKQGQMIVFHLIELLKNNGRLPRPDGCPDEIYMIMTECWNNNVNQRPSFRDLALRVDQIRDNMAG
Kind of experiment: JAK2 Inhibition Assay (Omnia kinase fluorescence peptide substrate assay). The conditions noted are these: averaged IC50 ranges; assay of Example C; 25 μM (Km app) or 1 mM ATP, 5 nM JAK2. The method in brief:
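5 nM JAK2 phosphorylated 10 μM Omnia Y7 peptide with ATP at 25 μM (Km app) or 1 mM, in 25 mM HEPES pH 7.4, 10 mM MgCl2, 0.01% Triton X-100, 1 mM DTT, 2% DMSO. Fluorescence (360/485 nm) was read every 50 s for 45 min. 10-point 3-fold series from 10 μM; POC versus uninhibited and background controls, 4-parameter logistic IC50.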

A value given as a limit tells only on which side of the number the result lay.

T3 sequence (P23458 whole entry): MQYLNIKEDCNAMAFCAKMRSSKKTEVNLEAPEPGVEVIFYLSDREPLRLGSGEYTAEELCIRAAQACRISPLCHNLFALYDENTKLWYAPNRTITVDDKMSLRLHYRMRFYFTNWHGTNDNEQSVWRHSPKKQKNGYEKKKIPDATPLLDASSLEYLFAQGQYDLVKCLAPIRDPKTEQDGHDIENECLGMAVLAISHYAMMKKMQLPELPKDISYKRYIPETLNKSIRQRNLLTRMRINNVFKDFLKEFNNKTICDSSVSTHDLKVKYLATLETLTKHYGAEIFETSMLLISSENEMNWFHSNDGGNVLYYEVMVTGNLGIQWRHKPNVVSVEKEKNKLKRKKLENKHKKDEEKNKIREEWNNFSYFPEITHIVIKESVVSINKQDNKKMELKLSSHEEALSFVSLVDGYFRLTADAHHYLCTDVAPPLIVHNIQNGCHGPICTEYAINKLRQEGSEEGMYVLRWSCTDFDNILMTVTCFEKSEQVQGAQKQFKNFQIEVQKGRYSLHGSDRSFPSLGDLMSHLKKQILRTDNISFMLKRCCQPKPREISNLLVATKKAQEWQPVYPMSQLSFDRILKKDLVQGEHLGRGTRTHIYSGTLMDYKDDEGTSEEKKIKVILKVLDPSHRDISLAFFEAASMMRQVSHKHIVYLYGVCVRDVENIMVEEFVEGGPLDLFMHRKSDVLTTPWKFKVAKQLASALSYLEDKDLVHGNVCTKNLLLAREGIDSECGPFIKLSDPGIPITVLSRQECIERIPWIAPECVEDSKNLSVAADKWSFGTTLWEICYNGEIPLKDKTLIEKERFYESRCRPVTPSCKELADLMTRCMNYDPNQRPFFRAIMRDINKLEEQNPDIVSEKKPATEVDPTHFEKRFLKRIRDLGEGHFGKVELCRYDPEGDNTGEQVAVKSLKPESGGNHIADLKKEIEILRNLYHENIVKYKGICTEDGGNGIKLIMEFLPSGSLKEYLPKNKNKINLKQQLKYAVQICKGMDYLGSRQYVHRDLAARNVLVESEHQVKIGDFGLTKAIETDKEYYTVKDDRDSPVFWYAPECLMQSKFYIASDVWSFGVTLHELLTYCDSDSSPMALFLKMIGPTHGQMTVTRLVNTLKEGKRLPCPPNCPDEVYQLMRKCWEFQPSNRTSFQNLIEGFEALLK

As to `N#CCC(C1CC1)n1cc(-c2nc(-c3cnco3)cc3nccn23)cn1` (stereo not drawn) [Example 43, 3-cyclopropyl-3-(4-(7-(oxazol-5-yl)imidazo[1,2-c]pyrimidin-5-yl)-1H-pyrazol-1-yl)propanenitrile], the IC50 is 10 to 100 nM against Human Tyk2 kinase domain, over 1000 nM against JAK3, over 1000 nM against JAK1 and 100 to 1000 nM at JAK2.
Turning to `CN1CCN(CCn2cc(-c3cc4nccn4c(-c4cnn(C(CC#N)C5CC5)c4)n3)cn2)CC1` (stereo not drawn) [Example 44, 3-cyclopropyl-3-(4-(7-(1-(2-(4-methylpiperazin-1-yl)ethyl)-1H-pyrazol-4-yl)imidazo[1,2-c]pyrimidin-5-yl)-1H-pyrazol-1-yl)propanenitrile], the IC50 fell in the range of 10 to 100 nM on Human Tyk2 kinase domain, 100 to 1000 nM against JAK3, 100 to 1000 nM against JAK1 and 10 to 100 nM against JAK2.
Turning to `Cc1nnc(-c2cc3nccn3c(-c3cnn(C(CC#N)C4CC4)c3)n2)s1` (stereo not drawn) [Example 45, 3-Cyclopropyl-3-(4-(7-(5-methyl-1,3,4-thiadiazol-2-yl)imidazo[1,2-c]pyrimidin-5-yl)-1H-pyrazol-1-yl)propanenitrile], the IC50 is 100 to 1000 nM on Human Tyk2 kinase domain, over 1000 nM against JAK3, over 1000 nM against JAK1 and over 1000 nM against JAK2.
On to `Cc1cn(-c2cc3nccn3c(-c3cnn(C(CC#N)C4CC4)c3)n2)cn1` (stereo not drawn) [Example 46, 3-Cyclopropyl-3-(4-(7-(4-methyl-1H-imidazol-1-yl)imidazo[1,2-c]pyrimidin-5-yl)-1H-pyrazol-1-yl)propanenitrile], for which the IC50 at Human Tyk2 kinase domain was 10 to 100 nM; against JAK3, over 1000 nM; against JAK1 it was over 1000 nM; on JAK2, 100 to 1000 nM.
Regarding `N#CCC(C1CC1)n1cc(-c2nc(-c3cncs3)cc3nccn23)cn1` (stereo not drawn) [Example 47, 3-Cyclopropyl-3-(4-(7-(thiazol-5-yl)imidazo[1,2-c]pyrimidin-5-yl)-1H-pyrazol-1-yl)propanenitrile], the IC50 was 10 to 100 nM at Human Tyk2 kinase domain, over 1000 nM against JAK3, 100 to 1000 nM on JAK1 and 100 to 1000 nM on JAK2.
As for `Cc1ncc(-c2cc3nccn3c(-c3cnn(C(CC#N)C4CC4)c3)n2)s1` (stereo not drawn) [Example 48], the IC50 against Human Tyk2 kinase domain was in the range of 10 to 100 nM; against JAK3, 100 to 1000 nM; against JAK1 it was 100 to 1000 nM; against JAK2, 10 to 100 nM.
Consider `Cc1ccc(-c2cc3nccn3c(-c3cnn(C(CC#N)C4CC4)c3)n2)cn1` (stereo not drawn) [Example 49, 3-Cyclopropyl-3-(4-(7-(6-methylpyridin-3-yl)imidazo[1,2-c]pyrimidin-5-yl)-1H-pyrazol-1-yl)propanenitrile], for which the IC50 at Human Tyk2 kinase domain is 10 to 100 nM; at JAK3, over 1000 nM; at JAK1, 100 to 1000 nM; at JAK2, 100 to 1000 nM.
On to `Cc1cc(-c2cc3nccn3c(-c3cnn(C(CC#N)C4CC4)c3)n2)ccn1` (stereo not drawn) [Example 50, 3-cyclopropyl-3-(4-(7-(2-methylpyridin-4-yl)imidazo[1,2-c]pyrimidin-5-yl)-1H-pyrazol-1-yl)propanenitrile], for which the IC50 at Human Tyk2 kinase domain was 10 to 100 nM; against JAK3, over 1000 nM; against JAK1, 100 to 1000 nM; against JAK2, 100 to 1000 nM.
For `CN1CCN(c2ccc(-c3cc4nccn4c(-c4cnn(C(CC#N)C5CC5)c4)n3)cn2)CC1` (stereo not drawn) [Example 51, 3-cyclopropyl-3-(4-(7-(6-(4-methylpiperazin-1-yl)pyridin-3-yl)imidazo[1,2-c]pyrimidin-5-yl)-1H-pyrazol-1-yl)propanenitrile], the IC50 was under 10 nM at Human Tyk2 kinase domain, 100 to 1000 nM against JAK3, 100 to 1000 nM at JAK1 and 10 to 100 nM on JAK2.
In the case of `N#CCC(C1CC1)n1cc(-c2nc(-c3ccc4c(c3)CCNC4)cc3nccn23)cn1` (stereo not drawn) [Example 52, 3-Cyclopropyl-3-(4-(7-(1,2,3,4-tetrahydroisoquinolin-6-yl)imidazo[1,2-c]pyrimidin-5-yl)-1H-pyrazol-1-yl)propanenitrile], the 50% inhibitory concentration (IC50) at Human Tyk2 kinase domain is 10 to 100 nM; against JAK3, 100 to 1000 nM; on JAK1, 10 to 100 nM; against JAK2, 10 to 100 nM.
For `CN1CCc2cc(-c3cc4nccn4c(-c4cnn(C(CC#N)C5CC5)c4)n3)ccc2C1` (stereo not drawn) [Example 53, 3-Cyclopropyl-3-(4-(7-(2-methyl-1,2,3,4-tetrahydroisoquinolin-6-yl)imidazo[1,2-c]pyrimidin-5-yl)-1H-pyrazol-1-yl)propanenitrile], the IC50 against Human Tyk2 kinase domain was 10 to 100 nM; on JAK3, 100 to 1000 nM; at JAK1 it was 10 to 100 nM; against JAK2 it was 10 to 100 nM.
In the case of `N#CCC(C1CC1)n1cc(-c2nc(-c3ccc4c(c3)CNCC4)cc3nccn23)cn1` (stereo not drawn) [Example 54, 3-Cyclopropyl-3-(4-(7-(1,2,3,4-tetrahydroisoquinolin-7-yl)imidazo[1,2-c]pyrimidin-5-yl)-1H-pyrazol-1-yl)propanenitrile], the IC50 was under 10 nM against Human Tyk2 kinase domain, 100 to 1000 nM at JAK3, 10 to 100 nM against JAK1 and 10 to 100 nM at JAK2.
On to `CN1CCc2ccc(-c3cc4nccn4c(-c4cnn(C(CC#N)C5CC5)c4)n3)cc2C1` (stereo not drawn) [Example 55, 3-Cyclopropyl-3-(4-(7-(2-methyl-1,2,3,4-tetrahydroisoquinolin-7-yl)imidazo[1,2-c]pyrimidin-5-yl)-1H-pyrazol-1-yl)propanenitrile], for which the IC50 at Human Tyk2 kinase domain fell in the range of 10 to 100 nM; on JAK3, 100 to 1000 nM; against JAK1 it was 10 to 100 nM; at JAK2, 10 to 100 nM.
As to `N#CCC(C1CC1)n1cc(-c2nc(-c3cnc4n3CCNC4)cc3nccn23)cn1` (stereo not drawn) [Example 56, 3-Cyclopropyl-3-(4-(7-(5,6,7,8-tetrahydroimidazo[1,2-a]pyrazin-3-yl)imidazo[1,2-c]pyrimidin-5-yl)-1H-pyrazol-1-yl)propanenitrile], the IC50 was 100 to 1000 nM on Human Tyk2 kinase domain, over 1000 nM against JAK3, over 1000 nM against JAK1 and 100 to 1000 nM on JAK2.
Turning to `CN1CCn2c(-c3cc4nccn4c(-c4cnn(C(CC#N)C5CC5)c4)n3)cnc2C1` (stereo not drawn) [Example 57, 3-cyclopropyl-3-(4-(7-(7-methyl-5,6,7,8-tetrahydroimidazo[1,2-a]pyrazin-3-yl)imidazo[1,2-c]pyrimidin-5-yl)-1H-pyrazol-1-yl)propanenitrile], the IC50 on Human Tyk2 kinase domain is 10 to 100 nM; on JAK3 it was over 1000 nM; against JAK1, 100 to 1000 nM; against JAK2, 100 to 1000 nM.
